Experimental findings from US8680012B2, “4-phenyl-pyrane-3,5-diones,4-phenyl-thiopyrane-3,6-diones and cyclohexanetriones as novel herbicides” (Syngenta Crop Protection LLC, priority 2006, dated 2014) are described below.

Type in all cases: in vivo
The test system of test [1] is Avena fatua (AVEFA). In words: Example B pre-emergence herbicidal activity, glasshouse pot test. Conditions: 312 h, evaluated after 13 days, read-out: Pre-emergence activity AVEFA (100=total damage to plant; 0=no damage to plant); for pest or weed control at 250 g/ha: rate 250 g/ha; for pest or weed control at 1000 g/ha: rate 1000 g/ha. Put shortly: (§1)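 Damage rating, 0–100, at 13 d after application. Spray solution: a.i. in acetone/water (50:50), 0.5% Tween 20. Applied 1 d after sowing or at 8 d growth; pots held at 24/16 °C, 14 h light, 65% humidity.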

Test [2] has as its system Amaranthus retroflexus (AMARE). The description is as above. Conditions: 312 h, evaluated after 13 days, read-out: Pre-emergence activity AMARE (100=total damage to plant; 0=no damage to plant); for pest or weed control at 250 g/ha: rate 250 g/ha; for pest or weed control at 1000 g/ha: rate 1000 g/ha. Put shortly: as §1
Test [3] concerns Echinochloa crus-galli (ECHCG). The test is described as above. Conditions: 312 h, evaluated after 13 days, read-out: Pre-emergence activity ECHCG (100=total damage to plant; 0=no damage to plant); for pest or weed control at 250 g/ha: rate 250 g/ha; for pest or weed control at 1000 g/ha: rate 1000 g/ha. Put shortly:
as §1

Test [4] has as its system Setaria faberi (SETFA). The test is described as above. Particulars: 312 h, evaluated after 13 days, read-out: Pre-emergence activity SETFA (100=total damage to plant; 0=no damage to plant); for pest or weed control at 250 g/ha: rate 250 g/ha; for pest or weed control at 1000 g/ha: rate 1000 g/ha. A digest of the protocol: as §1
The subject of test [5] is Alopecurus myosuroides (ALOMY). The test is described as above. Conditions: 312 h, evaluated after 13 days, read-out: Pre-emergence activity ALOMY (100=total damage to plant; 0=no damage to plant); for pest or weed control at 250 g/ha: rate 250 g/ha; for pest or weed control at 1000 g/ha: rate 1000 g/ha. Put shortly: as §1
Test [6] concerns Solanum nigrum (SOLNI). The test is described as above. Particulars: 312 h, evaluated after 13 days, read-out: Pre-emergence activity SOLNI (100=total damage to plant; 0=no damage to plant); for pest or weed control at 250 g/ha: rate 250 g/ha; for pest or weed control at 1000 g/ha: rate 1000 g/ha. A digest of the protocol: as §1
Test [7] deals with Avena fatua (AVEFA). In words: Example B post-emergence herbicidal activity, glasshouse pot test. Conditions: 312 h, evaluated after 13 days, read-out: Post-emergence activity AVEFA (100=total damage to plant; 0=no damage to plant); for pest or weed control at 250 g/ha: rate 250 g/ha; for pest or weed control at 1000 g/ha: rate 1000 g/ha. A digest of the protocol: as §1
The subject of test [8] is Amaranthus retroflexus (AMARE). The test is described as above. Particulars: 312 h, evaluated after 13 days, read-out: Post-emergence activity AMARE (100=total damage to plant; 0=no damage to plant); for pest or weed control at 250 g/ha: rate 250 g/ha; for pest or weed control at 1000 g/ha: rate 1000 g/ha. Put shortly: as §1
For test [9], the system named is Echinochloa crus-galli (ECHCG). The test is described as above. Conditions: 312 h, evaluated after 13 days, read-out: Post-emergence activity ECHCG (100=total damage to plant; 0=no damage to plant); for pest or weed control at 250 g/ha: rate 250 g/ha; for pest or weed control at 1000 g/ha: rate 1000 g/ha. Put shortly:
as §1

Test [10] has as its system Setaria faberi (SETFA). Described as above. Particulars: 312 h, evaluated after 13 days, read-out: Post-emergence activity SETFA (100=total damage to plant; 0=no damage to plant); for pest or weed control at 250 g/ha: rate 250 g/ha; for pest or weed control at 1000 g/ha: rate 1000 g/ha. Put shortly:
as §1

The test system of test [11] is Alopecurus myosuroides (ALOMY). The test is described as above. Particulars: 312 h, evaluated after 13 days, read-out: Post-emergence activity ALOMY (100=total damage to plant; 0=no damage to plant); for pest or weed control at 250 g/ha: rate 250 g/ha; for pest or weed control at 1000 g/ha: rate 1000 g/ha. Put shortly: as §1
Test [12] concerns Solanum nigrum (SOLNI). The test is described as above. Particulars: 312 h, evaluated after 13 days, read-out: Post-emergence activity SOLNI (100=total damage to plant; 0=no damage to plant); for pest or weed control at 250 g/ha: rate 250 g/ha; for pest or weed control at 1000 g/ha: rate 1000 g/ha. A digest of the protocol:
as §1

For `CCc1ccc(-c2ccc(Cl)c(F)c2)cc1C1=C(O)C(C)(C)C(=O)C(C)(C)C1=O` [Compound B-12], the pest or weed control at 250 g/ha in the test with Avena fatua (AVEFA) [1] was found to be 0%; in [2], 0%; in test [3], 30%; with Setaria faberi (SETFA) [4], 50%; in [5], 0%; in the test on Solanum nigrum (SOLNI) [6], 0%. The pest or weed control at 250 g/ha is 0% with Avena fatua (AVEFA) [7]; 30% in test [8]; 100% in [9]; 90% in the test on Setaria faberi (SETFA) [10]; 60% in [11]; 0% in the test on Solanum nigrum (SOLNI) [12].

As to `CCc1ccc(-c2ccc(Cl)cc2Cl)cc1C1=C(O)C(C)(C)C(=O)C(C)(C)C1=O` [Compound B-13], the pest or weed control at 250 g/ha stood at 20% in the test on Avena fatua (AVEFA) [1]; 0% in test [2]; 30% in test [3]; 20% in the test with Setaria faberi (SETFA) [4]; 0% in test [5]; 0% in the test on Solanum nigrum (SOLNI) [6]. Further, the pest or weed control at 250 g/ha in the test with Avena fatua (AVEFA) [7] is 30%; in test [8], 20%; in [9], 80%; in the test on Setaria faberi (SETFA) [10], 90%; in [11] it was 0%; in the test on Solanum nigrum (SOLNI) [12], 0%.

For the molecule `Cc1ccc(-c2ccc(Oc3ccccc3)cc2)cc1C1=C(O)C(C)(C)OC(C)(C)C1=O` [Compound A-16], the pest or weed control at 1000 g/ha with Avena fatua (AVEFA) [1] was found to be 20%; in [2] it was 0%; in [3], 100%; in the test on Setaria faberi (SETFA) [4], 100%; in [5], 30%; with Solanum nigrum (SOLNI) [6], 0%. The pest or weed control at 1000 g/ha in the test with Avena fatua (AVEFA) [7] came out at 30%; in test [8], 40%; in test [9] it was 100%; in the test with Setaria faberi (SETFA) [10], 100%; in [11], 30%; in the test with Solanum nigrum (SOLNI) [12] it was 10%.

In the case of `Cc1ccc(-c2cccc(C(F)(F)F)c2)cc1C1=C(O)C(C)(C)OC(C)(C)C1=O` [Compound A-15], the pest or weed control at 1000 g/ha in the test on Avena fatua (AVEFA) [1] was 50%; in test [2] it was 100%; in test [3], 100%; in the test with Setaria faberi (SETFA) [4] it was 50%; in [5], 50%; in the test with Solanum nigrum (SOLNI) [6], 100%. The pest or weed control at 1000 g/ha in the test on Avena fatua (AVEFA) [7] was 20%; in test [8], 90%; in test [9], 50%; with Setaria faberi (SETFA) [10], 10%; in test [11], 10%; in the test with Solanum nigrum (SOLNI) [12], 10%.

For `CCc1ccc(-c2ccc(Cl)cc2)cc1C1=C(OC(=O)CCOC)C(C)(C)OC(C)(C)C1=O` [Compound D-21], the pest or weed control at 1000 g/ha in the test with Avena fatua (AVEFA) [1] is 50%; in test [2], 0%; in [3], 100%; with Setaria faberi (SETFA) [4], 100%; in test [5], 90%; in the test with Solanum nigrum (SOLNI) [6], 0%. Also, the pest or weed control at 1000 g/ha in the test on Avena fatua (AVEFA) [7] worked out at 90%; in [8], 10%; in test [9], 100%; in the test with Setaria faberi (SETFA) [10] it was 100%; in test [11], 100%; in the test with Solanum nigrum (SOLNI) [12], 30%.

For `Cc1ccc(-c2ccc(C(C)(C)C)cc2)cc1C1=C(O)C(C)(C)OC(C)(C)C1=O` [Compound A-21], the pest or weed control at 1000 g/ha was 50% in the test on Avena fatua (AVEFA) [1]; 60% in [2]; 90% in [3]; 100% in the test on Setaria faberi (SETFA) [4]; 100% in test [5]; 50% in the test with Solanum nigrum (SOLNI) [6]. The pest or weed control at 1000 g/ha with Avena fatua (AVEFA) [7] worked out at 60%; in test [8], 20%; in test [9], 90%; in the test on Setaria faberi (SETFA) [10] it was 60%; in [11], 40%; in the test with Solanum nigrum (SOLNI) [12], 20%.

With `Cc1ccc(-c2ccc(Cl)nc2)cc1C1=C(O)C(C)(C)OC(C)(C)C1=O` [Compound A-54], the pest or weed control at 1000 g/ha turned out to be 80% with Avena fatua (AVEFA) [1]; 20% in [2]; 100% in [3]; 90% in the test on Setaria faberi (SETFA) [4]; 70% in test [5]; 0% in the test on Solanum nigrum (SOLNI) [6]. Besides, the pest or weed control at 1000 g/ha in the test with Avena fatua (AVEFA) [7] was found to be 50%; in test [8], 0%; in test [9], 90%; with Setaria faberi (SETFA) [10], 80%; in test [11], 80%; in the test on Solanum nigrum (SOLNI) [12], 0%.

Consider `CCc1ccc(-c2ccc(Cl)c(C)c2)cc1C1=C(O)C(C)(C)C(=O)C(C)(C)C1=O` [Compound B-2], for which the pest or weed control at 1000 g/ha was 20% in the test on Avena fatua (AVEFA) [1]; 90% in [2]; 70% in [3]; 0% with Setaria faberi (SETFA) [4]; 0% in [5]; 30% with Solanum nigrum (SOLNI) [6]. For the same molecule, the pest or weed control at 1000 g/ha with Avena fatua (AVEFA) [7] was 0%; in test [8], 70%; in [9] it was 80%; in the test on Setaria faberi (SETFA) [10], 20%; in [11], 0%; in the test on Solanum nigrum (SOLNI) [12], 40%.

For `CCc1ccc(-c2ccc(Cl)nc2C)cc1C1=C(O)C(C)(C)C(=O)C(C)(C)C1=O` [Compound B-30], the pest or weed control at 250 g/ha (in the test on Avena fatua (AVEFA) [1]; in [2]; in test [3]; in the test with Setaria faberi (SETFA) [4]; in test [5]; with Solanum nigrum (SOLNI) [6]) was 0% each time. The pest or weed control at 250 g/ha with Avena fatua (AVEFA) [7] amounted to 0%; in test [8], 0%; in test [9] it was 70%; in the test with Setaria faberi (SETFA) [10] it was 70%; in test [11] it was 20%; in the test on Solanum nigrum (SOLNI) [12], 10%.
